Acute toxicity, response vs control in vivo and inhibition data for five compounds are collected here from patent publication EP0589484A1, “1,2-Ethanediol derivative and salt thereof, process for producing the same, and cerebral function-improving agent comprising the same” (TOYAMA CHEMICAL CO., LTD., priority 1989, dated 1990).

SMILES strings stand for the structures. Where a name gives a salt, the structure may show the parent alone. Read-outs that look alike come from different tables or passages of the source.

The subject of one data set is ddY male mice. Kind of data set: Acute toxicity. Type of data set: in vivo, mouse. The following applies: 50 mg/kg intravenously, group of 3 ddY male mice. The text has this: A test compound dissolved in physiological saline was intravenously administered to a group of 3 ddY male mice (5-6 weeks old) to examine the acute toxicity of the test compound.
Another data set deals with ddY female mouse. Kind of data set: Effect of test compound on hypoxia (antihypoxic activity). The format is in vivo. The settings on record: po, 100 mg/kg orally, survival time relative to control, read-out: Antihypoxic activity (%). An outline of the steps: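 Female ddY mice (5-6 weeks, n=10) received 100 mg/kg orally in saline. Time to death was measured and activity calculated versus saline-dosed controls.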

Another data set deals with T1, acetylcholinesterase (Mus musculus, UniProt P21836).
T1 construct: a mouse cerebral homogenate (as an acetylcholinesterase source); from tissue; host or cells: mouse cerebrum (homogenate)
Nature of the data set: Inhibitory activity for acetylcholinesterase (method of Ellman et al.). The format is biochemical. The following applies: final concentration of the test compound 10 µg/ml; mouse cerebral homogenate; read-out: Inhibition (%). The procedure: A test was conducted in accordance with the method of Ellman et al. [Biochem. Pharmacol., vol. 7, pp. 88-95, 1961].
That is, acetylthiocholine (as a substrate) was added to a phosphate buffer solution containing 5,5'-dithiobis-(2-nitrobenzoic acid) (DTNB), a test compound and a mouse cerebral homogenate (as an acetylcholinesterase source). The resulting mixture was incubated, and the amount of the resulting 5-thio-2-nitrobenzoic acid was photometrically measured at 412 nm.
The inhibitory activity for acetylcholinesterase of the test compound was expressed by the inhibition (%) when the final concentration of the test compound was 10 µg/ml.
In general terms: In Ellman's method for cholinesterases, released thiocholine reacts with DTNB.

Setting [1] is: placed in chamber (4% oxygen, 96% nitrogen) after 1 hour from the administration.
[2] abbreviates: 0.5 h, placed in chamber (4% oxygen, 96% nitrogen) after 30 minutes from the administration (values marked *).

T1 sequence (P21836 32-614): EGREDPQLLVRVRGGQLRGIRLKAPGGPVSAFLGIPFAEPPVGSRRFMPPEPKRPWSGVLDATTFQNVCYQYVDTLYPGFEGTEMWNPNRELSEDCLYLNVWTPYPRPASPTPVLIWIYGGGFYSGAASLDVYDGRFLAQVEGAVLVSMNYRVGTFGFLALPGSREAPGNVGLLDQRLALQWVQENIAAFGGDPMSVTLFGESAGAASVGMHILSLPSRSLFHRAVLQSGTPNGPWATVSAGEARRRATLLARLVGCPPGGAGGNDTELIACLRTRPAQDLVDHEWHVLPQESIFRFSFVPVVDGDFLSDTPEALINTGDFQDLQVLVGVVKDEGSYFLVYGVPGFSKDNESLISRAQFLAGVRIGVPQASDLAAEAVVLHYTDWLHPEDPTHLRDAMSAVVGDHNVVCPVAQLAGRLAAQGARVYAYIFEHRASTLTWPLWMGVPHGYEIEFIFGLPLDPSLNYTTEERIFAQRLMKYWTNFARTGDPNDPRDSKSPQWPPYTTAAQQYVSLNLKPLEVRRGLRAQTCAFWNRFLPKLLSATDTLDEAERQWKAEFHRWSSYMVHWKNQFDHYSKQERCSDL

A word on the inhibition: it is the share of the control response that was lost under treatment. For `CN(C)CCOCC(O)c1ccc(Oc2ccccc2)cc1` (stereo not drawn) [Compound No. 54, 2-[2-(N,N-dimethylamino)ethoxy]-1-[4-(4-phenyloxy)phenyl]ethanol hydrochloride], the Acute toxicity result with ddY male mice is “no death case”. Further, the response vs control in vivo at 100 mg/kg in the data set with ddY female mouse (setting [1]) stood at 137%. In addition, on acetylcholinesterase, the inhibition at 10 µg/mL stood at 83%.
With `CN(C)CCOCC(O)c1ccc(Cl)c(Cl)c1` (stereo not drawn) [compound 34], in the data set on ddY male mice, the Acute toxicity entry is on record as “no death case”. The response vs control in vivo at 100 mg/kg with ddY female mouse (setting [1]) stood at 221%. Further, on acetylcholinesterase, the inhibition at 10 µg/mL is 26%.
For the compound `CN(C)CCOCC(O)c1ccc(Oc2ccc(F)cc2)cc1` (stereo not drawn) [compound 67], the Acute toxicity entry with ddY male mice was “no death case”. Besides, the response vs control in vivo at 100 mg/kg with ddY female mouse (setting [2]) worked out at 247%. For the same compound, the inhibition at 10 µg/mL on acetylcholinesterase is 90%.
With `COc1ccc(Oc2ccc(C(O)COCCN(C)C)cc2)cc1` (stereo not drawn) [compound 71], in the data set with ddY male mice, the Acute toxicity entry is recorded as “no death case”. Moreover, the response vs control in vivo at 100 mg/kg with ddY female mouse (setting [1]) worked out at 147%. The inhibition at 10 µg/mL at acetylcholinesterase was 87%.
In the case of `CNc1nc(Cl)c(C(O)COCCN(C)C)cc1F` (stereo not drawn) [compound 377], the Acute toxicity result in the data set on ddY male mice was “no death case”. In the data set on ddY female mouse (setting [2]), the response vs control in vivo at 100 mg/kg came to 221%. The inhibition at 10 µg/mL at acetylcholinesterase is 23%.
